What all share (assay): Antibacterial activity in vitro, Minimal Inhibitory Concentration
Assay type in all cases: cell-based

One experiment has as its system E. Coli Brig. From the text: (§1) The compounds of the invention are new chemical compounds that are used as pharmacological agents and especially as broad spectrum antibacterial agents. They are active in vitro against strains of both gram-positive and gram-negative bacteria. The activity of the compounds is illustrated by the results shown in the table for certain of the preferred compounds.

The next experiment has as its system E. Coli Vogel.
Text: as §1

For another experiment, the system named is Entero C. IMM-11.
Text: as §1

Another experiment has as its system Klebs. Pneu. MGH-2.
Text: as §1

For a further experiment, the system named is Prot. Vulg. 1810.
Text: as §1

A further experiment relates to Pseudo. Aeru 28.
Text: as §1

A further experiment relates to Pseudo. Aeru BRK.
Text: as §1

In a further experiment the test system is Pseudo. Aeru UI-18.
Text: as §1

Another experiment concerns Serr. Mar. IMM-16.
Text: as §1

The test system of another experiment is Staph Aureus UC-76.
Text: as §1

For `CC(=O)N1CCCC1C(=O)Nc1ccc2[nH]c(=O)c(C(=O)NC(C(=O)NC3C(=O)N4C3SC(C)(C)C4C(=O)O)c3ccc(O)cc3)cc2c1` (stereo not shown) [N-[6-[[(1-Acetyl-2-pyrrolidinyl)carbonyl]amino]-1,2-dihydro-2-oxo-3-quinolinylcarbonyl]amoxicillin], the “Minimal Inhibitory Concentration” value with E. Coli Brig came out at 3.1 µg/mL; with E. Coli Vogel it was 0.2 µg/mL; in the experiment with Entero C. IMM-11, 3.1 µg/mL; in the experiment with Klebs. Pneu. MGH-2, 25 µg/mL; in the experiment with Prot. Vulg. 1810 it was 0.8 µg/mL; with Pseudo. Aeru 28 it was 1.6 µg/mL. Moreover, the “Minimal Inhibitory Concentration” value in the experiment with Pseudo. Aeru BRK came out at 1.6 µg/mL; in the experiment on Pseudo. Aeru UI-18 it was 1.6 µg/mL; in the experiment on Serr. Mar. IMM-16 it was 12.5 µg/mL; in the experiment with Staph Aureus UC-76, 0.8 µg/mL.

Values taken from patent US4382089A, “Antibacterial amide compounds, compositions thereof and methods of using them” (Warner-Lambert Company, priority 1982, dated 1983).
